Experimental data published in patent US20250144067A1, “PERSONALIZED STARVATION THERAPY FOR CANCER” (Faeth Therapeutics, Inc., priority 2021, published 2025).
Structures can show the parent of a compound that is named as a salt. Numbered stars: 1 amine (or outer) side, 2 acyl side, 3 side chain; on linkers, the order of the positions; unused ones are H or OH. Bridge positions count the residues as written; N and C are the ends. Square brackets hold non-standard residues; d marks the D form. Peptide text beside a SMILES is read from it. * marks the point of attachment. pTerphenylCO(4''-OnC5H11) = CCCCCOc1ccc(-c2ccc(-c3ccc(C(=O)*)cc3)cc2)cc1; Orn(4R-OH,5R-OH) = O=C([C@H](C[C@@H](O)[C@@H](O)N[*:3])N[*:1])[*:2]; hTyr(3S-OH,4S-OH) = N[C@H](C(=O)O)[C@H](O)[C@@H](O)c1ccc(O)cc1; Pro(3S-OH,4S-Me) = C[C@H]1CN[C@H](C(=O)O)[C@H]1O; Hyp = O=C(O)[C@@H]1C[C@@H](O)CN1

What was measured:
[1] = test system: NCI-H292 lung cancer cells; experiment: FDA drug screening, complete media vs cholesterol-free media with simvastatin (TABLE 2); assay type: cell-based, human; conditions: for Cholesterol-free media + simvastatin (0.04 μM) / Complete Media: NCI-H292 cells
[2] = test system: NCI-H292 lung cancer cells; experiment: FDA drug screening, complete media vs cholesterol-free media without statin (TABLE 1); assay type: cell-based, human
[3] = cholesterol-free media with simvastatin 0.04 μM, FDA drug library screen (TABLE 2)
[4] = complete media, FDA drug library screen (TABLE 2)
[5] = complete media minus cholesterol-free media + simvastatin (0.04 μM), >0 enhanced anti-cancer activity, about 0 neutral, <0 antagonist
[6] = Complete minus Cholesterol-free, greater than 0 enhanced anti-cancer activity, about 0 neutral, below 0 antagonists
[7] = NCI-H292 cells in cholesterol-free media without statin
[8] = NCI-H292 cells in complete media
[9] = complete media minus cholesterol-free media + simvastatin, >0 enhanced anti-cancer activity, about 0 neutral, <0 antagonist
[10] = Complete minus Cholesterol-free, >0 enhanced anti-cancer activity, about 0 neutral, <0 antagonist
[11] = NCI-H292 cells, cholesterol-free media without statin
[12] = FDA drug library screen, cholesterol-free media with simvastatin 0.04 μM
[13] = NCI-H292 cells, cholesterol-free media without statin, FDA drug library screen
[14] = NCI-H292 cells, complete media, FDA drug library screen
[15] = complete vs cholesterol-free media, >0 enhanced anti-cancer activity, about 0 neutral, <0 antagonist
[16] = FDA library drug in cholesterol-free media with simvastatin 0.04 μM
[17] = FDA library drug in complete media
[18] = complete media vs cholesterol-free media + simvastatin (0.04 μM), >0 enhanced anti-cancer activity, about 0 neutral, <0 antagonist
[19] = Complete minus Cholesterol-free, […]
[20] = FDA drug library screen, complete media
[21] = complete vs cholesterol-free media, greater than 0 enhanced anti-cancer activity, about 0 neutral, below 0 antagonists

CN(C)N(C)C(=O)[C@@]1(Cc2ccccc2)CCCN(C(=O)[C@@H](Cc2c[nH]c3ccccc23)NC(=O)C(C)(C)N)C1 [Anamorelin (hydrochloride)]
Cholesterol-free media + simvastatin (0.04 μM) [1, 3]: 1.088
Complete Media [1, 4]: 1.064
Difference [1, 5]: −0.02
Difference [2, 6]: −0.93
Cholesterol-free [2, 7]: 1.922
Complete [2, 8]: 0.9877

CN(C)N(C)C(=O)[C@@]1(Cc2ccccc2)CCCN(C(=O)[C@@H](Cc2c[nH]c3ccccc23)NC(=O)C(C)(C)N)C1 [Anamorelin]
Cholesterol-free media + simvastatin (0.04 μM) ([1]; cholesterol-free media with simvastatin 0.04 μM, cell growth value in FDA drug screen): 1.263
Complete Media ([1]; complete media, cell growth value in FDA drug screen): 1.358
Difference [1, 9]: 0.10
Difference [2, 6]: −0.54
Cholesterol-free [2, 7]: 1.02
Complete [2, 8]: 0.4827

CC(C)(C#N)c1cc(Cn2cncn2)cc(C(C)(C)C#N)c1 [Anastrozole]
Cholesterol-free media + simvastatin (0.04 μM) [1, 3]: 1.07
Complete Media [1, 4]: 1.045
Difference [1, 5]: −0.02
Difference [2, 10]: −0.28
Cholesterol-free [2, 11]: 1.263
Complete ([2]; NCI-H292 cells, complete media): 0.9847

C=C1CC[C@@H]2[C@](C)(CO)[C@H](O)CC[C@@]2(C)[C@@H]1C/C=C1/C(=O)OC[C@H]1O [Andrographolide]
Cholesterol-free media + simvastatin (0.04 μM) [1, 12]: 1.859
Difference [1, 5]: −0.94
Cholesterol-free [2, 13]: 0.8912
Complete [2, 14]: 0.9868
Difference [2, 15]: 0.10

COc1ccc(-c2cc(=S)ss2)cc1 [Anethole (trithione)]
Cholesterol-free media + simvastatin (0.04 μM) [1, 16]: 1.972
Complete Media [1, 17]: 1.115
Difference [1, 18]: −0.86
Difference ([2]; Complete minus Cholesterol-free, greater than 0 enhanced anti-cancer activity, about 0 neutral, below 0 antagonist): −0.18
Cholesterol-free ([2]; NCI-H292 cells, FDA drug library screen, cholesterol-free media without statin): 1.563
Complete ([2]; NCI-H292 cells, FDA drug library screen, complete media): 1.382

CCCCCOc1ccc(-c2ccc(-c3ccc(C(=O)N[C@H]4C[C@@H](O)[C@@H](O)NC(=O)[C@@H]5[C@@H](O)[C@@H](C)CN5C(=O)[C@H]([C@@H](C)O)NC(=O)[C@H]([C@H](O)[C@@H](O)c5ccc(O)cc5)NC(=O)[C@@H]5C[C@@H](O)CN5C(=O)[C@H]([C@@H](C)O)NC4=O)cc3)cc2)cc1 [Anidulafungin] ({pTerphenylCO(4''-OnC5H11)}-[Orn(4R-OH,5R-OH)]T[Hyp][hTyr(3S-OH,4S-OH)]T[Pro(3S-OH,4S-Me)]; lactam 1-C)
Cholesterol-free media + simvastatin (0.04 μM) [1, 12]: 1.251
Difference ([1]; complete media minus cholesterol-free media + simvastatin (0.04 μM), […]): −1.03
Difference [2, 19]: −0.23
Cholesterol-free [2, 11]: 1.481
Complete ([2]; NCI-H292 cells, complete media): 1.247

COc1ccc(C(=O)N2CCCC2=O)cc1 [Aniracetam]
Cholesterol-free media + simvastatin (0.04 μM) [1, 3]: 1.041
Complete Media [1, 4]: 1.006
Difference [1, 5]: −0.04
Cholesterol-free [2, 13]: 0.69
Complete [2, 14]: 1.062
Difference [2, 15]: 0.37

COc1ccc(C2C(=O)c3ccccc3C2=O)cc1 [Anisindione]
Cholesterol-free media + simvastatin (0.04 μM) [1, 12]: 1.296
Complete Media [1, 20]: 1.617
Difference [1, 9]: 0.32
Cholesterol-free [2, 13]: 0.8915
Complete [2, 14]: 1.35
Difference [2, 15]: 0.46

c1ccc(CN(CC2=NCCN2)c2ccccc2)cc1 [Antazoline (hydrochloride)]
Cholesterol-free media + simvastatin (0.04 μM) ([1]; drug in cholesterol-free media with simvastatin 0.04 μM): 1.401
Complete Media ([1]; drug in complete media): 1.21
Difference [1, 18]: −0.19
Difference [2, 10]: −0.24
Cholesterol-free [2, 11]: 1.006
Complete ([2]; NCI-H292 cells, complete media): 0.7704

Cc1cc(=O)n(-c2ccccc2)n1C [Antipyrine]
Cholesterol-free media + simvastatin (0.04 μM) [1, 12]: 0.9785
Complete Media [1, 20]: 0.8535
Difference ([1]; complete media vs cholesterol-free media + simvastatin (0.04 μM), […]): −0.13
Difference [2, 19]: −0.24
Cholesterol-free [2, 11]: 1.066
Complete ([2]; NCI-H292 cells, complete media): 0.8256

CNC(=O)c1ccc(N2C(=S)N(c3cnc(C#N)c(C(F)(F)F)c3)C(=O)C23CCC3)cc1F [Apalutamide]
Cholesterol-free media + simvastatin (0.04 μM) [1, 3]: 1.113
Complete Media [1, 4]: 1.082
Difference [1, 5]: −0.03
Cholesterol-free [2, 11]: 1.195
Complete ([2]; NCI-H292 cells, complete media): 0.8274
Difference [2, 21]: −0.37

COc1ccc(-n2nc(C(N)=O)c3c2C(=O)N(c2ccc(N4CCCCC4=O)cc2)CC3)cc1 [Apixaban]
Cholesterol-free media + simvastatin (0.04 μM) [1, 12]: 0.9978
Complete Media [1, 20]: 1.135
Difference [1, 9]: 0.14
Difference [2, 10]: −0.06
Cholesterol-free [2, 13]: 0.9998
Complete [2, 14]: 0.9349

Nc1cc(Cl)c(N=C2NCCN2)c(Cl)c1 [Apraclonidine (hydrochloride)]
Cholesterol-free media + simvastatin (0.04 μM) [1, 16]: 1.345
Complete Media [1, 17]: 1.018
Difference [1, 18]: −0.33
Complete ([2]; NCI-H292 cells, complete media): 1.213
Difference [2, 21]: −0.41
